Usually EC50 stands for the concentration at which the effect is half-maximal.

This note sets out measurements from patent publication US20130029942A1, “COMPOUNDS AND THERAPEUTICAL USES THEREOF” (Myrexis, Inc., priority 2003, published 2013).

For the test, the system named is T-47D cells. Kind of test: Caspase cascade activation / induction of apoptosis in T-47D cells (fluorogenic N-(Ac-DEVD)-N'-ethoxycarbonyl-R110 substrate). The class given is cell-based, human. Particulars: for EC50: Homo sapiens, T47D.
The mark [1] stands for this setting: T-47D, 24 hr, read-out: T-47D (24 hr) EC50.
Where [2] appears, read: T-47D, 48 hr, read-out: T-47D (48 hr) EC50.
[3] abbreviates: T-47D, 48 hr, benzohydrazide table, read-out: T-47D (48 hr) EC50.
[4] abbreviates: T-47D, 48 hr, benzohydrazide table.

Read-outs that look alike come from different tables or passages of the source.

On to `COc1ccc(N(c2nc(C)nc3ccccc23)C(F)F)cc1` [Example 139, Difluoromethyl-(4-methoxy-phenyl)-(2-methyl-quinazolin-4-yl)-amine], for which the concentration giving a half-maximal response (EC50) under setting [1] was 4660 nM. Consider `CCOc1ccc(Nc2nc(Cl)nc3ccccc23)cc1` [Example 94, (2-Chloro-quinazolin-4-yl)-(4-ethoxy-phenyl)-amine], for which, under setting [2], the EC50 is more than 10000 nM.

`Cc1nc(N(C)c2ccc(O)cc2)c2ccccc2n1` [Example 93, (4-Hydroxy-phenyl)-(2-methyl-quinazolin-4-yl)-methyl-amine]: the EC50 under setting [1] is 65 nM. Consider `Cc1nc(N(C)c2ccc(C(=O)ON3C(=O)CCC3=O)cc2)c2ccccc2n1` [Example 119, Succinimidyl 4-(N-Methyl-N-(2-methylquinazolin-4-yl)amino)benzoic acid ester], for which the EC50 under setting [1] is 4290 nM. In the case of `CN(c1ccc(O)cc1)c1nc(Cl)nc2ccccc12` [Example 54, (2-Chloro-quinazolin-4-yl)-(4-hydroxyphenyl)-methylamine], the EC50 under setting [2] came out at 46 nM.

`COc1cccc(Nc2nc(Cl)nc3ccccc23)c1` [Example 32, (2-Chloro-quinazolin-4-yl)-(3-methoxy-phenyl)-amine]: the EC50 under setting [2] was more than 10000 nM. On to `CN(c1nc(Cl)nc2ccccc12)[C@H]1CC[C@@H](C)CC1` [Example 132, (2-Chloro-quinazolin-4-yl)-(cis-4-methylcyclohexyl)-methyl-amine], for which the EC50 under setting [1] was more than 10000 nM. As for `CN(c1ccc(Cl)cc1)c1nc(N(C)c2ccc(Cl)cc2)c2ccccc2n1` [Example 19, N^2,N^4-Bis(4-chloro-phenyl)-N^2,N^4-dimethyl-quinazoline-2,4-diamine], the EC50 is more than 10000 nM under setting [1] and more than 10000 nM under setting [2]. With `CN(NC(=O)c1ccccc1F)c1nc(C(F)(F)F)nc2ccccc12`, the EC50 under setting [3] was found to be 184 nM. Besides, under setting [4], the “T-47D (48 hr) Ratio” value was found to be 13.7.

As for `COc1ccc(N(c2nc(Cl)nc3ccccc23)C2CCCC2)cc1` [Example 45, (2-Chloro-quinazolin-4-yl)-cyclopentyl-(4-methoxy-phenyl)-amine], the EC50 under setting [2] is more than 10000 nM. Same read-out and setting: in the case of `COc1ccc(N(C)c2nc(Cl)nc3ccc(Cl)cc23)cc1` [Example 60, (2,6-Dichloro-quinazolin-4-yl)-(4-methoxy-phenyl)-methyl-amine] it was 13 nM; in that of `COc1ccc(N(C)c2nc(Cl)nc3ccccc23)cc1OC` [Example 68, (2-Chloro-quinazolin-4-yl)-(3,4-dimethoxy-phenyl)-methyl-amine], 4 nM. Take `CN(c1nc(Cl)nc2ccccc12)[C@H]1CC[C@H](C)CC1` [Example 133, (2-Chloro-quinazolin-4-yl)-(trans-4-methylcyclohexyl)-methyl-amine]: under setting [1], the EC50 is more than 10000 nM.

In the case of `COc1ccc(N(C)c2nc(N)nc3ccccc23)cc1` [Example 12, N^4-(4-Methoxy-phenyl)-methyl-quinazoline-2,4-diamine], the EC50 under setting [1] was determined as 8 nM; the EC50 under setting [2] worked out at 9 nM; the EC50 (Table III, time not given, repeats 24 hr or 48 hr T-47D values of Table I, read-out: Caspase activation (EC50 nM)) is 8 nM. On to `COc1ccc(N(c2nc(Cl)nc3ccccc23)C2CCCCC2)cc1` [Example 38, (2-Chloro-quinazolin-4-yl)-cyclohexyl-(4-methoxy-phenyl)-amine], for which the EC50 under setting [1] turned out to be 2930 nM. In the case of `Clc1nc(Nc2ccncc2)c2ccccc2n1` [Example 27, (2-Chloro-quinazolin-4-yl)-pyridin-4-yl-amine], under setting [2], the EC50 is more than 10000 nM. Same read-out and setting: in the case of `COc1ccc(CN(C)c2nc(Cl)nc3ccccc23)cc1` [Example 26, (2-Chloro-quinazolin-4-yl)-(4-methoxy-benzyl)-methyl-amine] it was 178 nM. Regarding `COc1ccc(N(C)c2nc(NCCN3CCOCC3)nc3cc(OC)c(OC)cc23)cc1` [Example 23, 6,7-Dimethoxy-N^4-(4-methoxy-phenyl)-N^4-methyl-N^2-(2-morpholin-4-yl-ethyl)-quinazoline-2,4-diamine], the EC50 was more than 10000 nM under setting [1] and more than 10000 nM under setting [2].

Turning to `COc1ccc(C(=O)NN(C)c2nc(C(F)(F)F)nc3ccccc23)cc1`, the EC50 under setting [3] worked out at 39 nM. Also, the “T-47D (48 hr) Ratio” value under setting [4] was determined as 13.1.
